Laboratory results as given in US4806680A, “3-halovinylglycine antibacterial agents” (Merck & Co., Inc., priority 1987, dated 1989).
In brackets after ≈: the same amount, converted by molar mass. Structures can show the parent of a compound that is named as a salt.

Assays:
[1] = tested on: E. coli DC2; assay: Agar dilution assay (M.I.C.); format: cell-based; conditions: Escherichia coli, read-out: minimum inhibitory concentration (M.I.C.)
Procedure: (§1) Representative 3-halovinylglycines and amino acid conjugates were tested for antibacterial activity by an agar dilution assay [being an modification of the antagonist-free-medium assay described in: Antimicrobial Agents and Chemotherapy, May 1979, pp 677-683 and pp 684-695]. Compounds assayed include (L) and (D)-3-chlorovinylglycine (HCL salts), (L) norvalyl-(L), (D), and (DL)-3 chlorovinylglycine (CF3 COOH salts), and (L) norvalyl-(L), (D), and (DL)-3 fluorovinylglycine (CF3 COOH) salts.

[2] = tested on: S. aureus; assay: Agar dilution assay (M.I.C.); format: cell-based, Staphylococcus aureus; conditions: for MIC: Staphylococcus aureus, read-out: minimum inhibitory concentration (M.I.C.); for antibacterial activity (in words): vs S. aureus
Procedure: as §1

[3] = tested on: cystathionine synthetase; conditions: synthesis of cystathionine from serine; cited from earlier work
[4] = tested on: E. Coli alanine racemase; assay: Inhibition of E. coli alanine racemase; format: biochemical
[5] = tested on: K. pneumoniae; assay: Agar dilution assay (M.I.C.); format: cell-based, Klebsiella pneumoniae; conditions: vs K. pneumoniae
Procedure: as §1

[6] = tested on: E. coli; assay: Agar dilution assay (M.I.C.); format: cell-based, Escherichia coli; conditions: vs E. coli
Procedure: as §1

[7] = tested on: Strep. faecalis; assay: Agar dilution assay (M.I.C.); format: cell-based, Streptococcus faecalis; conditions: vs Strep. faecalis
Procedure: as §1

[8] = tested on: eleven representative strains of pathogenic bacteria; assay: Agar dilution assay, panel of eleven strains; format: cell-based; conditions: for number of test species against which activity is shown: M.I.C. equal to or less than 256 indicates activity, 11 test species
Procedure: as §1
The antibacterial activity of the representative structure I compounds versus eleven representative strains of pathogenic bacteria is shown in the following Table.

[9] = tested on: Sal. typhimurium; assay: Agar dilution assay (M.I.C.); format: cell-based; conditions: Salmonella enterica, read-out: minimum inhibitory concentration (M.I.C.)
Procedure: as §1

[10] = tested on: E. coli TEM 2^+; assay: Agar dilution assay (M.I.C.); format: cell-based; conditions: Escherichia coli, read-out: minimum inhibitory concentration (M.I.C.)
Procedure: as §1

## C=C(Cl)C(NC(=O)[C@@H](N)CCC)C(=O)O (mixture of isomers) [(L)-NVA--(DL)-Cl--vinylgly, L-norvalyl-D,L-3-chlorovinylglycine]
[1]
  MIC: 4000 µg/mL
[2]
  MIC: ≤ 250 µg/mL

## C=C(Cl)C(N)C(=O)O (racemic) [racemic 3-chlorovinylglycine, 2-amino-3-chloro-3-butenoic acid]
[3]
  inactivation of cystathionine synthetase (in words): not being an inactivator

## C=C(Cl)[C@@H](N)C(=O)O [(D)Cl vinylgly, (D)-3-Chlorovinylglycine hydrochloride]
[4]
  inhibition of alanine racemase (in words): potent irreversible inhibitor
[5]
  antibacterial activity (in words): exhibits antibacterial activity
[6]
  antibacterial activity (in words): exhibits antibacterial activity
[2]
  antibacterial activity (in words): exhibits antibacterial activity
[7]
  antibacterial activity (in words): exhibits antibacterial activity

## C=C(Cl)[C@@H](NC(=O)[C@@H](N)CCC)C(=O)O [(L)-NVA--(D)-Cl--vinylgly, L-norvalyl-D-3-chlorovinylglycine]
[1]
  MIC: 32000 µg/mL (≈ 136 mM)

## C=C(F)C(NC(=O)[C@@H](N)CCC)C(=O)O (stereo partly drawn) [(L)-NVA--(DL)-F--vinylgly, (L,DL)-Norvalyl-3-fluorovinylglycine trifluoracetate]
[1]
  MIC: 4000 µg/mL (≈ 18.3 mM)
[2]
  MIC: 1000 µg/mL (≈ 4.58 mM)

## C=C(Cl)[C@H](NC(=O)[C@@H](N)CCC)C(=O)O [(L)-NVA--(L)-Cl--vinylgly, (L,L)-Norvalyl 3-chlorovinylglycine trifluoroacetate]
[8]
  number of test species against which activity is shown: 8 of 11
[9]
  MIC: 64 mg/mL
[1]
  MIC: 1000 µg/mL
[10]
  MIC: 8 mg/mL

## C=C(F)[C@H](NC(=O)[C@@H](N)CCC)C(=O)O [(L)-NVA--(L)-F--vinylgly, (L,L)-Norvalyl-3-fluorovinylglycine trifluoroacetate]
[8]; (L,L) versus (L,D) diastereomer
  relative activity in the antibacterial agar dilution assay: more active
[8]
  number of test species against which activity is shown: 9 of 11
[1]
  MIC: 2000 µg/mL
[10]
  MIC: 16 mg/mL

## C=C(Cl)[C@H](N)C(=O)O [(L)Cl vinylgly, L-3-chlorovinylglycine]
[4]
  inhibition of alanine racemase (in words): inhibits
[5]
  antibacterial activity (in words): exhibits antibacterial activity
[2]
  antibacterial activity (in words): exhibits antibacterial activity
[7]
  antibacterial activity (in words): exhibits antibacterial activity
